{"source": "patent US6355799B1", "about": "“Substituted benzene compounds, process for their preparation, and herbicidal and defoliant compositions containing them” (ISK Americas Incorporated, priority 1997, dated 2002)", "format_in_all_cases": "in vivo", "key": {"[1]": {"test_system": "redroot pigweed (Amaranthus retroflexus, AMARE)", "experiment": "Pre-emerge test, greenhouse herbicide activity screening", "settings": "pre-emerge, rated 14 days after application, 0 = no damage, 100 = complete death", "method_in_brief": "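Sandy loam pots; pre-emerge: sown 1 d pre-spray, surface-watered after, then bottom-watered. Post-emerge: sown 8–21 d before, 2–3 leaf stage, + 0.25% v/v NIS, bottom-watered. Acetone, 187 l/ha track spray, 15–1000 g ai/ha. 0–100 injury score, day 14.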"}, "[2]": {"test_system": "barnyardgrass (Echinochloa crus-galli, ECHCG)", "experiment": "Pre-emerge test, greenhouse herbicide activity screening", "settings": "pre-emerge, rated 14 days after application, 0 = no damage, 100 = complete death", "method_in_brief": "(§1)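 Visual ratings on a 0-100 scale (0 no damage, 100 all plants dead) were taken at 14 days after treatment. Rates of 15-1000 g ai/ha in acetone, 187 l/ha, were sprayed onto soil one day after planting (pre-emerge) or onto 2-3 leaf plants with 0.25% v/v surfactant (post-emerge).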"}, "[3]": {"test_system": "green foxtail (Setaria viridis, SETVI)", "experiment": "Pre-emerge test, greenhouse herbicide activity screening", "settings": "pre-emerge, rated 14 days after application, 0 = no damage, 100 = complete death", "method_in_brief": "as §1"}, "[4]": {"test_system": "ivyleaf morningglory (Ipomoea hederacea, IPOHE)", "experiment": "Pre-emerge test, greenhouse herbicide activity screening", "settings": "pre-emerge, rated 14 days after application, 0 = no damage, 100 = complete death", "method_in_brief": "as §1"}, "[5]": {"test_system": "johnsongrass (Sorghum halepense, SORHA)", "experiment": "Pre-emerge test, greenhouse herbicide activity screening", "settings": "pre-emerge, rated 14 days after application, 0 = no damage, 100 = complete death", "method_in_brief": "as §1"}, "[6]": {"test_system": "lambsquarters (Chenopodium album, CHEAL)", "experiment": "Pre-emerge test, greenhouse herbicide activity screening", "settings": "pre-emerge, rated 14 days after application, 0 = no damage, 100 = complete death", "method_in_brief": "as §1"}, "[7]": {"test_system": "large crabgrass (Digitaria sanguinalis, DIGSA)", "experiment": "Pre-emerge test, greenhouse herbicide activity screening", "settings": "pre-emerge, rated 14 days after application, 0 = no damage, 100 = complete death", "method_in_brief": "as §1"}, "[8]": {"test_system": "sicklepod (Cassia obtusifolia, CASOB)", "experiment": "Pre-emerge test, greenhouse herbicide activity screening", "settings": "pre-emerge, rated 14 days after application, 0 = no damage, 100 = complete death", "method_in_brief": "as §1"}, "[9]": {"test_system": "velvetleaf (Abutilon theophrasti, ABUTH)", "experiment": "Pre-emerge test, greenhouse herbicide activity screening", "settings": "pre-emerge, rated 14 days after application, 0 = no damage, 100 = complete death", "method_in_brief": "as §1"}, "[10]": {"test_system": "field corn (Zea mays L., var. Dekalb 535, CORN)", "experiment": "Pre-emerge test, crop safety", "settings": "pre-emerge, rated 14 days after application, 0 = no damage, 100 = complete death", "method_in_brief": "(§2)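 Plants grown in 10 cm pots of sandy loam mix received acetone-dissolved compounds through a moving flat-fan nozzle. Doses ranged from 15 to 1000 g ai/ha. Pre-emerge pots were seeded one day earlier, post-emerge pots 8–21 days earlier. Fourteen days on, each pot was graded 0–100 for damage.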"}, "[11]": {"test_system": "upland rice (Oryza sp., var. Tebonnet, RICE)", "experiment": "Pre-emerge test, crop safety", "settings": "pre-emerge, rated 14 days after application, 0 = no damage, 100 = complete death", "method_in_brief": "as §2"}, "[12]": {"test_system": "barnyardgrass (Echinochloa crus-galli, ECHCG)", "experiment": "Post-emerge test, greenhouse herbicide activity screening", "settings": "phytotoxicity rating 0-100 (0 no damage, 100 complete death), 14 days after application", "method_in_brief": "as §1"}, "[13]": {"test_system": "green foxtail (Setaria viridis, SETVI)", "experiment": "Post-emerge test, greenhouse herbicide activity screening", "settings": "phytotoxicity rating 0-100 (0 no damage, 100 complete death), 14 days after application", "method_in_brief": "as §1"}, "[14]": {"test_system": "ivyleaf morningglory (Ipomoea hederacea, IPOHE)", "experiment": "Post-emerge test, greenhouse herbicide activity screening", "settings": "phytotoxicity rating 0-100 (0 no damage, 100 complete death), 14 days after application", "method_in_brief": "as §1"}, "[15]": {"test_system": "johnsongrass (Sorghum halepense, SORHA)", "experiment": "Post-emerge test, greenhouse herbicide activity screening", "settings": "phytotoxicity rating 0-100 (0 no damage, 100 complete death), 14 days after application", "method_in_brief": "as §1"}, "[16]": {"test_system": "lambsquarters (Chenopodium album, CHEAL)", "experiment": "Post-emerge test, greenhouse herbicide activity screening", "settings": "phytotoxicity rating 0-100 (0 no damage, 100 complete death), 14 days after application", "method_in_brief": "as §1"}, "[17]": {"test_system": "large crabgrass (Digitaria sanguinalis, DIGSA)", "experiment": "Post-emerge test, greenhouse herbicide activity screening", "settings": "phytotoxicity rating 0-100 (0 no damage, 100 complete death), 14 days after application", "method_in_brief": "as §1"}, "[18]": {"test_system": "redroot pigweed (Amaranthus retroflexus, AMARE)", "experiment": "Post-emerge test, greenhouse herbicide activity screening", "settings": "phytotoxicity rating 0-100 (0 no damage, 100 complete death), 14 days after application", "method_in_brief": "as §1"}, "[19]": {"test_system": "sicklepod (Cassia obtusifolia, CASOB)", "experiment": "Post-emerge test, greenhouse herbicide activity screening", "settings": "phytotoxicity rating 0-100 (0 no damage, 100 complete death), 14 days after application", "method_in_brief": "as §1"}, "[20]": {"test_system": "velvetleaf (Abutilon theophrasti, ABUTH)", "experiment": "Post-emerge test, greenhouse herbicide activity screening", "settings": "phytotoxicity rating 0-100 (0 no damage, 100 complete death), 14 days after application", "method_in_brief": "as §1"}, "[21]": {"test_system": "field corn (Zea mays L., var. Dekalb 535, CORN)", "experiment": "Post-emerge test, crop safety", "settings": "phytotoxicity rating 0-100 (0 no damage, 100 complete death), 14 days after application", "method_in_brief": "as §1"}, "[22]": {"test_system": "upland rice (Oryza sp., var. Tebonnet, RICE)", "experiment": "Post-emerge test, crop safety", "settings": "phytotoxicity rating 0-100 (0 no damage, 100 complete death), 14 days after application", "method_in_brief": "as §1"}}, "data": [{"smiles": "C#CCOc1c(Cl)cc(F)c(-n2c(=O)cc(C(F)(F)F)n(C)c2=O)c1N", "note": "[Compound 1-19]", "values": [{"measurement": "Pre-emerge Herbicidal Activity AMARE (phytotoxicity rating, scale 0-100)", "setting": "[1]; 63 g ai/ha", "value": 95}, {"measurement": "Pre-emerge Herbicidal Activity AMARE (phytotoxicity rating, scale 0-100)", "setting": "[1]; 250 g ai/ha", "value": 100}, {"measurement": "Pre-emerge Herbicidal Activity ECHCG (phytotoxicity rating, scale 0-100)", "setting": "[2]; 63 g ai/ha", "value": 90}, {"measurement": "Pre-emerge Herbicidal Activity ECHCG (phytotoxicity rating, scale 0-100)", "setting": "[2]; 250 g ai/ha", "value": 100}, {"measurement": "Pre-emerge Herbicidal Activity SETVI (phytotoxicity rating, scale 0-100)", "setting": "[3]; 63 g ai/ha", "value": 100}, {"measurement": "Pre-emerge Herbicidal Activity SETVI (phytotoxicity rating, scale 0-100)", "setting": "[3]; 250 g ai/ha", "value": 100}, {"measurement": "Pre-emerge Herbicidal Activity IPOHE (phytotoxicity rating, scale 0-100)", "setting": "[4]; 63 g ai/ha", "value": 60}, {"measurement": "Pre-emerge Herbicidal Activity IPOHE (phytotoxicity rating, scale 0-100)", "setting": "[4]; 250 g ai/ha", "value": 100}, {"measurement": "Pre-emerge Herbicidal Activity SORHA (phytotoxicity rating, scale 0-100)", "setting": "[5]; 63 g ai/ha", "value": 90}, {"measurement": "Pre-emerge Herbicidal Activity SORHA (phytotoxicity rating, scale 0-100)", "setting": "[5]; 250 g ai/ha", "value": 100}, {"measurement": "Pre-emerge Herbicidal Activity CHEAL (phytotoxicity rating, scale 0-100)", "setting": "[6]; 63 g ai/ha", "value": 100}, {"measurement": "Pre-emerge Herbicidal Activity CHEAL (phytotoxicity rating, scale 0-100)", "setting": "[6]; 250 g ai/ha", "value": 100}, {"measurement": "Pre-emerge Herbicidal Activity DIGSA (phytotoxicity rating, scale 0-100)", "setting": "[7]; 63 g ai/ha", "value": 95}, {"measurement": "Pre-emerge Herbicidal Activity DIGSA (phytotoxicity rating, scale 0-100)", "setting": "[7]; 250 g ai/ha", "value": 100}, {"measurement": "Pre-emerge Herbicidal Activity CASOB (phytotoxicity rating, scale 0-100)", "setting": "[8]; 63 g ai/ha", "value": 90}, {"measurement": "Pre-emerge Herbicidal Activity CASOB (phytotoxicity rating, scale 0-100)", "setting": "[8]; 250 g ai/ha", "value": 100}, {"measurement": "Pre-emerge Herbicidal Activity ABUTH (phytotoxicity rating, scale 0-100)", "setting": "[9]; 63 g ai/ha", "value": 100}, {"measurement": "Pre-emerge Herbicidal Activity ABUTH (phytotoxicity rating, scale 0-100)", "setting": "[9]; 250 g ai/ha", "value": 100}, {"measurement": "Pre-emerge crop damage CORN (phytotoxicity rating, scale 0-100)", "setting": "[10]; 63 g ai/ha", "value": 50}, {"measurement": "Pre-emerge crop damage CORN (phytotoxicity rating, scale 0-100)", "setting": "[10]; 250 g ai/ha", "value": 80}, {"measurement": "Pre-emerge crop damage RICE (phytotoxicity rating, scale 0-100)", "setting": "[11]; 63 g ai/ha", "value": 80}, {"measurement": "Pre-emerge crop damage RICE (phytotoxicity rating, scale 0-100)", "setting": "[11]; 250 g ai/ha", "value": 95}, {"measurement": "Post-emerge Herbicidal Activity ECHCG", "setting": "[12]; 63 g ai/ha", "value": 0}, {"measurement": "Post-emerge Herbicidal Activity ECHCG", "setting": "[12]; 250 g ai/ha", "value": 80}, {"measurement": "Post-emerge Herbicidal Activity SETVI", "setting": "[13]; 63 g ai/ha", "value": 20}, {"measurement": "Post-emerge Herbicidal Activity SETVI", "setting": "[13]; 250 g ai/ha", "value": 95}, {"measurement": "Post-emerge Herbicidal Activity IPOHE", "setting": "[14]; 63 g ai/ha", "value": 30}, {"measurement": "Post-emerge Herbicidal Activity IPOHE", "setting": "[14]; 250 g ai/ha", "value": 95}, {"measurement": "Post-emerge Herbicidal Activity SORHA", "setting": "[15]; 63 g ai/ha", "value": 0}, {"measurement": "Post-emerge Herbicidal Activity SORHA", "setting": "[15]; 250 g ai/ha", "value": 70}, {"measurement": "Post-emerge Herbicidal Activity CHEAL", "setting": "[16]; 63 g ai/ha", "value": 30}, {"measurement": "Post-emerge Herbicidal Activity CHEAL", "setting": "[16]; 250 g ai/ha", "value": 90}, {"measurement": "Post-emerge Herbicidal Activity DIGSA", "setting": "[17]; 63 g ai/ha", "value": 0}, {"measurement": "Post-emerge Herbicidal Activity DIGSA", "setting": "[17]; 250 g ai/ha", "value": 10}, {"measurement": "Post-emerge Herbicidal Activity AMARE", "setting": "[18]; 63 g ai/ha", "value": 30}, {"measurement": "Post-emerge Herbicidal Activity AMARE", "setting": "[18]; 250 g ai/ha", "value": 70}, {"measurement": "Post-emerge Herbicidal Activity CASOB", "setting": "[19]; 63 g ai/ha", "value": 10}, {"measurement": "Post-emerge Herbicidal Activity CASOB", "setting": "[19]; 250 g ai/ha", "value": 30}, {"measurement": "Post-emerge Herbicidal Activity ABUTH", "setting": "[20]; 63 g ai/ha", "value": 100}, {"measurement": "Post-emerge Herbicidal Activity ABUTH", "setting": "[20]; 250 g ai/ha", "value": 100}, {"measurement": "Post-emerge Herbicidal Activity CORN (crop damage)", "setting": "[21]; 63 g ai/ha", "value": 5}, {"measurement": "Post-emerge Herbicidal Activity CORN (crop damage)", "setting": "[21]; 250 g ai/ha", "value": 45}, {"measurement": "Post-emerge Herbicidal Activity RICE (crop damage)", "setting": "[22]; 63 g ai/ha", "value": 25}, {"measurement": "Post-emerge Herbicidal Activity RICE (crop damage)", "setting": "[22]; 250 g ai/ha", "value": 80}]}]}
